Assay results reported in PubChem BioAssay AID1963969 (Molecular Pharmacology Branch, DTP, NCI, 2024).

Test system: 817829-284-R-J1-PDC multi-cell spheroid viability
Experiment: Anticancer human tumor 817829-284-R-J1-PDC patient-derived colon adenocarcinoma cell line growth inhibition [PI3K]
Settings: for IC50: curve of first compound; for viability, T/C: stronger effect = lower value; active = viability on the fitted dose curve at most 10% of control; inactive = the rest
How it was run: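 Tumor cells were combined with HUVEC and MSCs into spheroids, then dosed with PI3K-inhibitor combinations over half-log ranges capped near clinical Cmax or 10 microM.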

[1] = second compound 0.00316 µM, first compound 0.0316 µM
[2] = second compound 0.00316 µM, first compound 0.1 µM
[3] = second compound 0.01 µM, first compound 0.0316 µM
[4] = second compound 0.01 µM, first compound 0.1 µM
[5] = second compound 0.0316 µM, first compound 0.0316 µM
[6] = second compound 0.0316 µM, first compound 0.1 µM
[7] = second compound 0.1 µM, first compound 0.0316 µM
[8] = second compound 0.1 µM, first compound 0.1 µM
[9] = second compound 0.316 µM, first compound 0.0316 µM
[10] = second compound 0.316 µM, first compound 0.1 µM
[11] = second compound 1 µM, first compound 0.0316 µM
[12] = second compound 1 µM, first compound 0.1 µM
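Note: spheroids exposed to agents for seven days before readout.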
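Throughout, for viability, T/C: percent of vehicle DMSO control viability which is 100%.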

CC(C)NCC(C(=O)N1CCN(c2ncnc3c2C(C)CC3O)CC1)c1ccc(Cl)cc1 (centres undefined) + COc1c(OCCCN2CCOCC2)ccc2c3n(c(=NC(=O)c4cnc(N)nc4)nc12)CCN3
inactive: viability, T/C [1] 78.3% | viability, T/C [2] 51.8% | viability, T/C (second compound 0.00316 µM, first compound 0.316 µM) 54.5% | viability, T/C (second compound 0.00316 µM, first compound 1 µM) 30.8% | viability, T/C (second compound 0.00316 µM, first compound 3.16 µM) 23% | viability, T/C (second compound 0.00316 µM, first compound 10 µM) 15.1% | viability, T/C [3] 65% | viability, T/C [4] 49.1% | viability, T/C (second compound 0.01 µM, first compound 0.316 µM) 24.8% | viability, T/C (second compound 0.01 µM, first compound 1 µM) 21.6% | viability, T/C (second compound 0.01 µM, first compound 3.16 µM) 21.2% | viability, T/C (second compound 0.01 µM, first compound 10 µM) 10.2% | viability, T/C [5] 72.6% | viability, T/C [6] 40.6% | viability, T/C (second compound 0.0316 µM, first compound 0.316 µM) 29.9% | viability, T/C (second compound 0.0316 µM, first compound 1 µM) 21.4% | viability, T/C (second compound 0.0316 µM, first compound 3.16 µM) 22.9% | viability, T/C (second compound 0.0316 µM, first compound 10 µM) 9.33% | viability, T/C [7] 40.7% | viability, T/C [8] 23.7% | viability, T/C (second compound 0.1 µM, first compound 0.316 µM) 26.5% | viability, T/C (second compound 0.1 µM, first compound 1 µM) 15.4% | viability, T/C (second compound 0.1 µM, first compound 3.16 µM) 13.4% | viability, T/C [9] 20% | viability, T/C [10] 19.8% | viability, T/C (second compound 0.316 µM, first compound 0.316 µM) 23.6% | viability, T/C (second compound 0.316 µM, first compound 1 µM) 16.6% | viability, T/C (second compound 0.316 µM, first compound 3.16 µM) 8.4% | viability, T/C [11] 12.4% | viability, T/C [12] 12.3% | viability, T/C (second compound 1 µM, first compound 0.316 µM) 13.2%
0.0767 µM: IC50 (second compound 0.0316 µM)
< 0.0316 µM: IC50 (second compound 0.1 µM) | IC50 (second compound 0.316 µM) | IC50 (second compound 1 µM)
0.23 µM: IC50 (second compound 0.00316 µM)
active: viability, T/C (second compound 0.1 µM, first compound 10 µM) 8.69% | viability, T/C (second compound 0.316 µM, first compound 10 µM) 7.04% | viability, T/C (second compound 1 µM, first compound 1 µM) 10% | viability, T/C (second compound 1 µM, first compound 3.16 µM) 6.2% | viability, T/C (second compound 1 µM, first compound 10 µM) 5%
0.0884 µM: IC50 (second compound 0.01 µM)

CC(C)n1nc(-c2ccc3oc(N)nc3c2)c2c(N)ncnc21 + COc1c(OCCCN2CCOCC2)ccc2c3n(c(=NC(=O)c4cnc(N)nc4)nc12)CCN3
active: viability, T/C (second compound 1 µM, first compound 0.000316 µM) 9.62% | viability, T/C (second compound 1 µM, first compound 0.001 µM) 14% | viability, T/C (second compound 1 µM, first compound 0.00316 µM) 9.7% | viability, T/C (second compound 1 µM, first compound 0.01 µM) 10.8% | viability, T/C [11] 8.57% | viability, T/C [12] 6.68%
inactive: viability, T/C (second compound 0.00316 µM, first compound 0.000316 µM) 66.8% | viability, T/C (second compound 0.00316 µM, first compound 0.001 µM) 83.7% | viability, T/C (second compound 0.00316 µM, first compound 0.00316 µM) 72.2% | viability, T/C (second compound 0.00316 µM, first compound 0.01 µM) 45.5% | viability, T/C [1] 42.6% | viability, T/C [2] 17.8% | viability, T/C (second compound 0.01 µM, first compound 0.000316 µM) 44% | viability, T/C (second compound 0.01 µM, first compound 0.001 µM) 83.3% | viability, T/C (second compound 0.01 µM, first compound 0.00316 µM) 67.6% | viability, T/C (second compound 0.01 µM, first compound 0.01 µM) 70.9% | viability, T/C [3] 26.6% | viability, T/C [4] 14.4% | viability, T/C (second compound 0.0316 µM, first compound 0.000316 µM) 78.5% | viability, T/C (second compound 0.0316 µM, first compound 0.001 µM) 72.7% | viability, T/C (second compound 0.0316 µM, first compound 0.00316 µM) 45.5% | viability, T/C (second compound 0.0316 µM, first compound 0.01 µM) 46.5% | viability, T/C [5] 37.7% | viability, T/C [6] 19.6% | viability, T/C (second compound 0.1 µM, first compound 0.000316 µM) 31.9% | viability, T/C (second compound 0.1 µM, first compound 0.001 µM) 31.8% | viability, T/C (second compound 0.1 µM, first compound 0.00316 µM) 38% | viability, T/C (second compound 0.1 µM, first compound 0.01 µM) 31.1% | viability, T/C [7] 26.9% | viability, T/C [8] 17% | viability, T/C (second compound 0.316 µM, first compound 0.000316 µM) 21.1% | viability, T/C (second compound 0.316 µM, first compound 0.001 µM) 22.8% | viability, T/C (second compound 0.316 µM, first compound 0.00316 µM) 23.6% | viability, T/C (second compound 0.316 µM, first compound 0.01 µM) 17.7% | viability, T/C [9] 21.8% | viability, T/C [10] 18.7%
0.0161 µM: IC50 (second compound 0.01 µM)
0.00526 µM: IC50 (second compound 0.0316 µM)
< 0.000316 µM: IC50 (second compound 0.1 µM) | IC50 (second compound 0.316 µM) | IC50 (second compound 1 µM)
0.0136 µM: IC50 (second compound 0.00316 µM)
